Assay results from paper PMC4259414, “HS-133, a novel fluorescent phosphatidylinositol 3-kinase inhibitor as a potential imaging and anticancer agent for targeted therapy” (Oncotarget, 2014).

Legend:
SkBr3 cells [1] = assay: cell cycle analysis by PI staining and flow cytometry; format: cell-based, human; conditions: SkBr3, 1, 10, 50 μM, 24 h
Protocol: To examine the relationship between the growth inhibitory effect of HS-133 and cell cycle progression, we analyzed cell cycle distribution of SkBr3 cells by HS-133 using a flow cytometry. The SkBr3 cells were treated for 24 h with various concentrations of HS-133 (1, 10, 50 μM) and collected and stained with PI and then analyzed by FACS. […] The up-regulation of p27, cyclin dependent kinase (CDK) inhibitor, is related to G0/G1 cell cycle arrest and contributes to the down-regulation of cyclin D1 [31]. Thus, we evaluated the effect of HS-133 on the protein expressions of p27 and cyclin D1. HS-133 increased the expression of p27 while decreasing cyclin D1 expression (Fig. 4C).
The SkBr3 cells were plated in 100 mm-diameter culture dishes. On the following day, the cells were treated with various concentrations of HS-133 or 0.1% DMSO for 24 h. The floating and adherent cells were collected and fixed in cold 70% ethanol at 4°C overnight. […] The events were evaluated for each sample and the cell cycle distribution was analyzed using Cell Quest software (Becton Dickinson). The results were presented as the number of cells versus the amount of DNA, as indicated by the intensity of a fluorescence signal. […]

MCF-7 cells = assay: cell viability MTT assay, MCF-7; format: cell-based; conditions: Homo sapiens, MCF7, MCF-7, 48 h, read-out: IC50, cell growth inhibition
Protocol: (§1) To determine whether HS-133 can function as a novel anticancer compound, we tested the ability of this compound to inhibit the growth of breast cancer cell lines (SkBr3, T47D, and MCF-7) using an MTT assay. The cells were exposed to various concentrations (0.5–50 μM) of HS-133 for 48 h. As shown in Fig. 3A-C, HS-133 inhibited the growth of all three breast cancer cell lines in a dose-dependent manner.
(§2) Cell viability was performed by an MTT assay. Briefly, the SkBr3, T47D, and MCF-7 cells were plated at a density of 1-5 × 10^3 cells/well in a 96-well plate for 48 h. The medium was removed, and the cells were treated with either DMSO as control or various concentrations of HS-133. The final concentration of DMSO in the medium was ≤ 0.1% (v/v). After the cells were incubated for 48 h, 20 μl of MTT solutions (2 mg/ml) was added to each well for another 4 h at 37°C. The formazan crystals that formed were dissolved in DMSO (200 μl/well) via constant shaking for 5 min. The plate was then read on a microplate reader at 540 nm. Three replicate wells were used for each analysis. The median inhibitory concentration (IC50, defined as the drug concentration at which cell growth was inhibited by 50%) was assessed from the dose-response curves.

HUVECs [2] = assay: tube formation assay; format: cell-based, human; conditions: 20 h
Protocol: (§3) To examine the effect of HS-133 on angiogenesis, a capillary tube formation assay using human umbilical vein endothelial cells (HUVECs) was performed. […] Cell migration is critical for the endothelial cells to form blood vessels during angiogenesis, and is necessary for tumor growth and metastasis. Thus, we conducted a wound migration assay to study the effect of HS-133 on cell migration. […] Considering that endothelial migration and tube formation have all highly relevant properties of angiogenesis, our results illustrated that HS-133 has the ability to block angiogenesis.
A 10 mg/ml (200 μl) of Matrigel (BD Biosciences) was polymerized for 30 min at 37°C. HUVECs were suspended in M199 (2% FBS) medium containing VEGF (50 ng/ml) at a density of 2.5 × 10^5 cells/ml, and 0.2 ml of cell suspension was added to each well coated with Matrigel, together with or without the indicated concentrations of HS-133 for 20 h. The morphological changes of the cells and tubes formed were observed under a phase-contrast microscope and photographed at 200× and 400× magnification.

PI3Kα = target: T1, PI3Kα (Homo sapiens, UniProt P42336); assay: radiometric kinase assay ([γ-33P]-ATP), Reaction Biology Corp.; format: biochemical
T1 construct: purchased Reaction Biology Corp. (Malvern, PA), contract assay service
T1 sequence (P42336 whole entry): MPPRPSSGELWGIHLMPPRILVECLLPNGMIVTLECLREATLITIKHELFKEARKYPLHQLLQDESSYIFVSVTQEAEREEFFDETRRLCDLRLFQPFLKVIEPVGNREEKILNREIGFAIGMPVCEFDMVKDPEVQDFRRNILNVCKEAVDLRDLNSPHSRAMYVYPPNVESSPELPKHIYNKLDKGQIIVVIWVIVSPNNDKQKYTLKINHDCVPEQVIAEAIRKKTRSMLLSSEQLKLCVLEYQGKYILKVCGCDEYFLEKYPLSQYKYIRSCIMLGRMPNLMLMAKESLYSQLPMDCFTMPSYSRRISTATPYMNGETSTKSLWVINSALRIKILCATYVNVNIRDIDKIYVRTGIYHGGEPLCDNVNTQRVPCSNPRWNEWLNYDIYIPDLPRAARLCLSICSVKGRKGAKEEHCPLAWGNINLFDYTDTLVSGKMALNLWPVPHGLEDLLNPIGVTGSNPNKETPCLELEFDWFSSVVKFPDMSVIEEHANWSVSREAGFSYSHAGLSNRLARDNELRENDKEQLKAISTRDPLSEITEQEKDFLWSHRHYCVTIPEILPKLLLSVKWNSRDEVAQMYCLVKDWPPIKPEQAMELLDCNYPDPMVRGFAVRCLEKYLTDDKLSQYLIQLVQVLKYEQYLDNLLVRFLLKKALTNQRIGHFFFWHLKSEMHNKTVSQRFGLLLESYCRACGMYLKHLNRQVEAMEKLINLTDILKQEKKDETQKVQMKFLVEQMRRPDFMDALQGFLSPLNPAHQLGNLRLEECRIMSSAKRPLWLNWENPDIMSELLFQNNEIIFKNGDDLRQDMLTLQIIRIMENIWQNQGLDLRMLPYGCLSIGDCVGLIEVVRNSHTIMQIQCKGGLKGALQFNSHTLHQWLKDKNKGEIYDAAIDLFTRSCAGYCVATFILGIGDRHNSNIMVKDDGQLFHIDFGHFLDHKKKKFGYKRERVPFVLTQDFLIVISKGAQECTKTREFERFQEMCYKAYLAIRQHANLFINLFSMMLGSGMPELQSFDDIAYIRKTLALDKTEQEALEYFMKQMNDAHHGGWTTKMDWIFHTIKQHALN
T1 sequence (P27986 whole entry partner): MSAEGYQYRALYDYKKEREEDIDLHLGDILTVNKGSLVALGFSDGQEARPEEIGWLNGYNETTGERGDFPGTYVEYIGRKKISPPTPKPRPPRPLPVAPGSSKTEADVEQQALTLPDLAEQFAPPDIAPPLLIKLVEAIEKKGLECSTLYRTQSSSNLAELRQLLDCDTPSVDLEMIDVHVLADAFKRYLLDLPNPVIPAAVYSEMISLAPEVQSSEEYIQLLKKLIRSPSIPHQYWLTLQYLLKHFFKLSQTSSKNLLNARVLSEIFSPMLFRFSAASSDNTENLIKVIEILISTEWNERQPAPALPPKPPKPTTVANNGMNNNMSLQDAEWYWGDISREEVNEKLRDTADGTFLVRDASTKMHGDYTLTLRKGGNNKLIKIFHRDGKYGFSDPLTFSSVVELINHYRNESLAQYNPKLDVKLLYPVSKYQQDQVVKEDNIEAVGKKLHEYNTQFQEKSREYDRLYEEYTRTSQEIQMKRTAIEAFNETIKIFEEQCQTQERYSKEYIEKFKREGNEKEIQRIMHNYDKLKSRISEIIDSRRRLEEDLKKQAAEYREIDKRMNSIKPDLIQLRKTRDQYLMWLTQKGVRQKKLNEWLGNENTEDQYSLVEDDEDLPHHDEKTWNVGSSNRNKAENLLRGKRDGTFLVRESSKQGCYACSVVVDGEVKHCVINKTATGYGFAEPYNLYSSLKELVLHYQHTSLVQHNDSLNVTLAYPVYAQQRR

HUVECs [3] = assay: wound migration assay; format: cell-based, human; conditions: HUVECs, 1, 5, or 10 μM, 18 h
Protocol: as §3
HUVECs plated on 60 mm-diameter culture dishes at 90% confluence, were wounded 2 mm in width with a sterile razor blade and marked at the injury line. […] HUVECs were allowed to migrate for 18 h and were rinsed with a serum-free medium, followed by fixing with absolute methanol and staining with Giemsa (Sigma-Aldrich). Migration was quantitated with counting the number of cells that moved beyond the reference line.

SkBr3 cells [4] = assay: cell viability MTT assay, SkBr3; format: cell-based; conditions: Homo sapiens, SK-BR-3, 48 h, SkBr3, 48 h, read-out: IC50, cell growth inhibition
Protocol: as §1, §2

IC50 (MCF-7 cells): 9.15 µM
EC50 (PI3Kα; Fig. 2A, read-out: EC50 (printed in Fig. 2A), inhibitory activity against PI3Kα in vitro): 0.992 µM
IC50 (PI3Kα; radiometric kinase assay, read-out: IC50 against PI3Kα): 0.992 µM
Compound: CC(=O)Nc1ccc(-c2nc3c(c(=O)n(C)c(=O)n3C)n2-c2cccc(F)c2)cc1 [HS-133, N-(4-(7-(3-Fluorophenyl)-1,3-dimethyl-2,6-dioxo-2,3,6,7-tetrahydro-1H-purin-8-yl)phenyl) acetamide]
cell cycle distribution (SkBr3 cells [1]): increased the number of cells in the G0/G1 phase
capillary tube formation (HUVECs [2]): inhibited the formation of vessel-like structures
cell migration (HUVECs [3]): significantly inhibited
IC50 (SkBr3 cells [4]): 46.8 µM
